Reference: patent US20240299557A1, “COMPOUND FOR DEGRADING DEOXYRIBONUCLEIC ACID (DNA) POLYMERASE, AND USE THEREOF” (TAIBIDI PHARMACEUTICAL TECHNOLOGY (SHIJIAZHUANG) CO., LTD., priority 2021, published 2024)
Where a SMILES comes first, the peptide text is derived from it. The star is where a group is joined. Cbz = O=C(OCc1ccccc1)*

Assays:
HBV P protein = molecular target: T1, HBV P protein (Hepatitis B virus genotype D subtype ayw, UniProt P03156); assay: Degradation of flag-tagged HBV P protein in transfected Huh7 cells (Western Blot); type: cell-based
T1 construct: flag; expressed in transfected cells; host or cells: Huh7
Procedure: In vitro cell model: Huh7.
Proteasome inhibitor: MG132
The Huh7 cells cultured in the medium containing 10 μM TPD00203 drug were used to transfect the flag-tagged P protein overexpression plasmid, and the medium containing 10 μM TPD00203 drug was changed 6 hours after transfection, and MG132 (final concentration 10 μM) was added 24 hours after transfection to inhibit the degradation of P protein, and cells were harvested after MG132 treatment for 12 hours. MG132 is a reversible proteasome inhibitor. After MG132 was removed, the cells were cultured in a medium containing 10 μM TPD00203 for 12 hours, and the cells were harvested. The expression of P protein was detected by Western Blot experiment. DMSO was used as a control.

HBV [1] = assay: Inhibition of HBV virus replication in HepAD38 cells (HBV DNA level in supernatant); type: cell-based, hepatitis B virus; conditions: for inhibition at 0.01 µM / inhibition at 0.1 µM / inhibition at 1 µM / inhibition at 10 µM: Hepatitis B virus, HepAD38 cell line, read-out: Antiviral activity of the compound at different concentrations; for inhibition at 1 µM: 1000 nM; for inhibition at 10 µM: 10000 nM; for inhibition of virus replication: all tested dose levels 10 nM, P≤0.001; for inhibitory effect on virus replication: after 7 days, TPD00203 each dose group (3.75 nM, 100 nM, 5 μM, 100 μM), ETV 3.75 nM
Procedure: In vitro cell model 2: Stable toxigenic HepAD38 cells.
(§1) Positive drug control: entecavir (ETV).
(§2) Experimental procedure: HepG2.2.15 cells and stable toxigenic HepAD38 cells were divided into six experimental groups. The number of cells in each well was 7×10^4, and the amount of medium in each well was 500 μl. The first group was a blank control, the second group was a positive control, and 3.75 nM ETV was added; the third to sixth groups were added with 3.75 nM, 100 nM, 5 μM and 100 μM compound (I, TPD00203). The supernatant was collected on the 3rd day after administration and the HBV DNA level in the supernatant was detected. On the seventh day, the supernatant was collected again and the cells were pelleted, and the level of HBV DNA in the supernatant was detected.
After the preliminary evaluation of the virus-inhibiting effect of TPD00203, the inhibitory effects of the same dose of TPD00203 and ETV were determined in HepAD38 cell line. ETV and TPD00203 were 4 dose groups of 10 nM, 100 nM, 1 μM, and 10 μM.
The inhibitory activity of compounds (I-X) on the virus in HepAD38 cell line was determined by the same method as in Example 6, and the results were shown in the following table.

[2] = molecular target: T2, HBV P protein (DNA polymerase) (Hepatitis B virus genotype D subtype ayw, UniProt P03156); assay: Degradation of HBV P protein (DNA polymerase) in Huh7-HBP cell line (Nano-Glo HiBiT/LgBiT luminescence); type: cell-based; conditions: read-out: Degradation activity of DNA polymerase at different concentrations of compounds; for inhibition at 0.1 µM: 100 nM; for inhibition at 0.3 µM: 300 nM; for inhibition at 1 µM: 1000 nM; for inhibition at 3 µM: 3000 nM; for inhibition at 10 µM: 10000 nM
T2 construct: expressed in transfected cells; host or cells: Huh7-LgBiT cells transduced with pLVX-HBP-Puro lentivirus (Huh7-HBP)
Procedure: The transfected huh-7-HBP cell line was digested and suspended, 100 μl of cell suspension was added to each well of a 96-well plate at a concentration of 2×10^5/ml, and incubated overnight. 10 μl of drug was added to each well according to the pre-set dose, and each dose of each drug should be at least two replicate wells. After shaking gently, the cell suspension was put back into the incubator, and incubated for 1-24 h according to the specific situation. Nano-Glo@ LCS Dilution Buffer and Nano-Glo@ Live Cell Substrate two reagents in the Nano-Glo@Live Cell Assay System kit were mixed at a ratio of 20:1, and added to the cell plate to be tested at a ratio of 25 ul per 100 ul system. After shaking for 30 seconds, full wavelength luminosity was measured using BMG Labtech FLUOstar Omega ELIASA. The higher the luminescence value, the higher the HBP content of the target protein.
According to method 1, the degradation effect of target compounds I-X on HBV P protein at 5 different concentrations was determined.

HBV [3] = assay: Inhibition of HBV virus replication in HepG2.2.15 cells (HBV DNA level in supernatant); type: cell-based, hepatitis B virus; conditions: after 7 days of administration, P≤0.001 vs blank group
Procedure: In vitro cell model 1: HepG2 cells transfected with hepatitis B virus (HBV), namely HepG2 2.2.15 cells.
as §1, §2

[4] = HepAD38 cells, 7 days, 100 nM, 1 μM, 10 μM

T2 sequence (P03156 whole entry): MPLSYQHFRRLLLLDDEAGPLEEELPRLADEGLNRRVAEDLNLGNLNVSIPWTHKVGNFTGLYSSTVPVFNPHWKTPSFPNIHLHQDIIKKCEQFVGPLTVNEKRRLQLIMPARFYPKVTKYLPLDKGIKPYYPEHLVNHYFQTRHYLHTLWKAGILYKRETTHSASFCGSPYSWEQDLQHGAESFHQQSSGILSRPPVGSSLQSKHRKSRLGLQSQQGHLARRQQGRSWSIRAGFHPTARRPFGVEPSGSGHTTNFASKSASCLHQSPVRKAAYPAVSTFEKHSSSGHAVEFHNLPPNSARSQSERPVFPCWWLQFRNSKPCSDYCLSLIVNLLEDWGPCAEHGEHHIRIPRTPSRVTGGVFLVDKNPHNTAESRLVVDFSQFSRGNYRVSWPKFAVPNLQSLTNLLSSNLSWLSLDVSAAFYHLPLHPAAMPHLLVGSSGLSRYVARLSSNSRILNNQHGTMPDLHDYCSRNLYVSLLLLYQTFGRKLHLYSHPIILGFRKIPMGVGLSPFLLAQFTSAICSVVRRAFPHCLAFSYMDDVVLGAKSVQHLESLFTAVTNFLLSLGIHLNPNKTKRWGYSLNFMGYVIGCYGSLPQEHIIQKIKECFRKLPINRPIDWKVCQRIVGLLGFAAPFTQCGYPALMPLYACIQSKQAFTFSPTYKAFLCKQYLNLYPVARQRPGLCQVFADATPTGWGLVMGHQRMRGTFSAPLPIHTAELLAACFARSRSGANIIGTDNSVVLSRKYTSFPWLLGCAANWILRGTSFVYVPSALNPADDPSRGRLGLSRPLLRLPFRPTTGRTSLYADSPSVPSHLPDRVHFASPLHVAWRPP
T1 sequence (P03156 whole entry): as above

Row | SMILES | effect of proteasome inhibitor on drug-induced P protein degradation (HBV P protein; Huh7 cells, MG132 final concentration 10 μM added 24 hours after transfection, with 10 μM TPD00203) | inhibition at 0.01 µM (HBV [1]; 10 nM) | inhibition at 0.1 µM (HBV [1]; 100 nM) | inhibition at 1 µM (HBV [1]) | inhibition at 10 µM (HBV [1]) | inhibition at 0.1 µM [2] | inhibition at 0.3 µM [2] | inhibition at 1 µM [2] | inhibition at 3 µM [2] | inhibition at 10 µM [2] | P protein degradation (Western Blot) (HBV P protein; Huh7 cells transfected with flag-Polymerase plasmid, 10 μM TPD00203, 36 hours after transfection) | virus-inhibiting effect compared with ETV at the same dose (HBV [1]; HepAD38 cells, 7 days, 10 nM, 100 nM, 1 μM, 10 μM) | inhibition of virus replication (HBV [1]; [4]) | inhibitory effect on virus replication (HBV [1]; HepAD38 cells) | inhibitory effect on virus replication (HBV [3]; 3.75 nM) | inhibitory effect on virus replication (HBV [3]; 5 μM) | inhibitory effect on virus replication (HBV [3]; 100 μM)
1 | CC(C)C[C@@H](C=O)NC(=O)[C@H](CC(C)C)NC(=O)[C@H](CC(C)C)NC(=O)OCc1ccccc1 [MG132, reference compound] (Cbz-Leu-Leu-Leu-aldehyde) | inhibited drug degradation | – | – | – | – | – | – | – | – | – | – | – | – | – | – | – | –
2 | C=C1[C@H](CNC(=O)CN2CCN(CCCC(=O)N[C@H](C(=O)N3C[C@H](O)C[C@H]3C(=O)NCc3ccc(-c4scnc4C)cc3)C(C)(C)C)CC2)[C@H](O)C[C@@H]1n1cnc2c(=O)[nH]c(N)nc21 [Compound VII] | – | 10 to 30% | 10 to 30% | 30 to 60% | 30 to 60% | < 30% | < 30% | < 30% | 30 to 70% | 30 to 70% | – | – | – | – | – | – | –
3 | C=C1[C@H](CO)[C@H](O)C[C@@H]1n1cnc2c(OCCN3CCC(CCCC(=O)N[C@H](C(=O)N4C[C@H](O)C[C@H]4C(=O)NCc4ccc(-c5scnc5C)cc4)C(C)(C)C)CC3)nc(N)nc21 [III] | – | > 60% | > 60% | > 60% | > 60% | < 30% | < 30% | 30 to 70% | 30 to 70% | > 70% | – | – | – | – | – | – | –
4 | C=C1[C@H](CO)[C@H](O)C[C@@H]1n1cnc2c(OCCN3CCN(CCCC(=O)N[C@H](C(=O)N4C[C@H](O)C[C@H]4C(=O)NCc4ccc(-c5scnc5C)cc4)C(C)(C)C)CC3)nc(N)nc21 [II] | – | 10 to 30% | 10 to 30% | 30 to 60% | > 60% | < 30% | < 30% | < 30% | 30 to 70% | 30 to 70% | – | – | – | – | – | – | –
5 | C=C1[C@H](CNC(=O)CN2CCC(OCCC(=O)N[C@H](C(=O)N3C[C@H](O)C[C@H]3C(=O)NCc3ccc(-c4scnc4C)cc3)C(C)(C)C)CC2)[C@H](O)C[C@@H]1n1cnc2c(=O)[nH]c(N)nc21 [IX] | – | 30 to 60% | 30 to 60% | > 60% | > 60% | – | – | – | – | – | – | – | – | – | – | – | –
6 | C=C1[C@H](CNC(=O)CN2CCC(CCCC(=O)N[C@H](C(=O)N3C[C@H](O)C[C@H]3C(=O)NCc3ccc(-c4scnc4C)cc3)C(C)(C)C)CC2)[C@H](O)C[C@@H]1n1cnc2c(=O)[nH]c(N)nc21 [VIII] | – | 30 to 60% | 30 to 60% | 30 to 60% | > 60% | < 30% | < 30% | 30 to 70% | 30 to 70% | > 70% | – | – | – | – | – | – | –
7 | C=C1[C@H](CO)[C@H](O)C[C@@H]1n1cnc2c(OCCCCCCCCCC(=O)N[C@H](C(=O)N3C[C@H](O)C[C@H]3C(=O)NCc3ccc(-c4scnc4C)cc3)C(C)(C)C)nc(N)nc21 [Compound I] | – | > 60% | > 60% | > 60% | > 60% | < 30% | 30 to 70% | 30 to 70% | > 70% | > 70% | promote P protein degradation | better virus-inhibiting effect than ETV | significantly inhibit virus replication | significant inhibitory effect on virus replication | significant inhibition of viral replication | significant inhibition of viral replication | significant inhibition of viral replication
8 | C=C1[C@H](CO)[C@@H](O)C[C@@H]1n1cnc2c(=O)[nH]c(N)nc21 [entecavir, reference compound] | – | – | – | – | – | – | – | – | – | – | – | – | significantly inhibit virus replication | significant inhibitory effect on virus replication | significant inhibitory effect on virus replication | – | –
9 | C=C1[C@H](CO)[C@H](O)C[C@@H]1n1cnc2c(OCCOCCOCCCC(=O)N[C@H](C(=O)N3C[C@H](O)C[C@H]3C(=O)NCc3ccc(-c4scnc4C)cc3)C(C)(C)C)nc(N)nc21 [Compound V] | – | 10 to 30% | 30 to 60% | 30 to 60% | 30 to 60% | < 30% | 30 to 70% | 30 to 70% | 30 to 70% | 30 to 70% | – | – | – | – | – | – | –
10 | C=C1[C@H](CNC(=O)CCCCCCCCC(=O)N[C@H](C(=O)N2C[C@H](O)C[C@H]2C(=O)NCc2ccc(-c3scnc3C)cc2)C(C)(C)C)[C@H](O)C[C@@H]1n1cnc2c(=O)[nH]c(N)nc21 [Compound VI, N1-(((1R,3S)-3-(2-amino-6-oxo-1,6-dihydro-9H-purin-9-yl)-5-hydroxy-2-methylenecyclopentyl)methyl)-N10-((S)-1-((2S,4R)-4-hydroxy-2-((4-(4-methylthiazol-5-yl)benzyl)carbamoyl)pyrrolidin-1-yl)-3,3-dimethyl-1-oxobutan-2-yl) decanoic acid diamide] | – | 10 to 30% | 30 to 60% | > 60% | > 60% | < 30% | 30 to 70% | 30 to 70% | > 70% | > 70% | – | – | – | – | – | – | –
